Entries after “also recorded” stand apart in the source; their conditions may differ. Read-outs that look alike come from different tables or passages of the source.
Legend:
Assay type in all cases: in vivo, human
plasma renin activity = assay: Pharmacodynamics: plasma renin activity (PRA); settings: for Renin Activity, mean observed: BL
Source text: (§1) PK/PD Analysis Set includes all subjects in the SAF who have sufficient data available for the analysis of pharmacokinetic and pharmacodynamic measurements. In the analyses based on PKPD, subjects will be analyzed according to the actual treatment received.

[1] = Pharmacokinetics (plasma concentration, Cmax, AUC, trough); settings: for concentration at 7 day: human, plasma, oral, Day 7, read-out: Trough plasma concentration, Geo Mean
Source text: Pharmacokinetic endpoints of this study are PK parameters, including, of area under the plasma concentration versus time curve (AUC), maximum plasma concentration (Cmax), time to maximum concentration (Tmax), and half-life (t1/2) will be summarized descriptively for Randomization (baseline) and Study Weeks 1, 4, and 8
as §1

Serum sodium = settings: active treatment cohorts, Parts 1 and 2
ACTH stimulation testing = settings: majority of Part 2 subjects, 100 mg QD, Baseline and after 8 weeks
Experimental: 11-deoxycorticosterone levels were unaffected. […] Due to supply chain disruption, the ability to perform ACTH stimulation testing was limited during the first part of the trial. However, the majority of subjects in Part 2 dosed with 100 mg QD, the maximum dose tested, had ACTH-stimulation testing performed at Baseline and after 8 weeks of treatment.

11-deoxycortisol = assay: Pharmacodynamics: plasma 11-deoxycortisol; settings: for 11-Deoxycortisol, mean observed: BL
Source text: as §1

[2] = steady state, Day 28, 100 mg QD Part 1

With `CC(=O)N[C@H]1CC[C@H](NC(=O)CN2CCN(c3nncc(-c4ccc(C)cc4)n3)CC2)CC1` [Compound A HBr] the “Renin Activity, mean observed” value (plasma renin activity; Part 1, 12.5 mg BID) was 1.299 µg/L/h, the “Renin Activity, mean observed” value (plasma renin activity; Part 1, 12.5 mg QD) was 0.950 µg/L/h and the “Renin Activity, mean observed” value (plasma renin activity; Part 1, 25 mg BID) was 1.104 µg/L/h. For the same compound, the “Renin Activity, mean observed” value (plasma renin activity; Part 1, 50 mg QD) was 1.258 µg/L/h, the “Renin Activity, mean observed” value (plasma renin activity; Part 1, 100 mg QD) was 0.956 µg/L/h and the “Renin Activity, mean observed” value (plasma renin activity; Part 2, 100 mg QD) was 5.417 µg/L/h. The Plasma renin activity (plasma renin activity; pharmacodynamic response, all doses, listed as lorundrostat) was “commensurate increase; also recorded: increased in all subjects treated with lorundrostat”, the “Systemic exposure expressed as Cmax or AUC” value ([1]; across doses) was “increased with increasing dose” and the concentration at 7 day ([1]; 12.5 mg, 12.5 mg BID) was 20.4 ng/mL. It also gave a concentration at 7 day ([1]; 12.5 mg, 12.5 mg QD) of 6.55 ng/mL, a concentration at 7 day ([1]; 25 mg, 25 mg BID) of 49.6 ng/mL and a concentration at 7 day ([1]; 50 mg, 50 mg QD) of 16.6 ng/mL. The concentration at 7 day ([1]; 100 mg, 100 mg QD Part 1) was 53.4 ng/mL, the concentration at 7 day ([1]; 100 mg, 100 mg QD Part 2) was 35.1 ng/mL and the “AUC0-24, Median” value [1, 2] was 15000 ng·h/mL. For the same compound, the “Cmax, Geo Mean” value [1, 2] was 1370 ng/mL, the Serum sodium levels (Serum sodium) was “decreased” and the ACTH-stimulation results (ACTH stimulation testing) was “no individuals with abnormal ACTH-stimulation results”. For the same compound, the “11-Deoxycortisol, mean observed” value (11-deoxycortisol; Part 1, 12.5 mg BID) was 28.36 ng/dL, the “11-Deoxycortisol, mean observed” value (11-deoxycortisol; Part 1, 12.5 mg QD) was 29.07 ng/dL and the “11-Deoxycortisol, mean observed” value (11-deoxycortisol; Part 1, 25 mg BID) was 25.87 ng/dL. For the same compound, the “11-Deoxycortisol, mean observed” value (11-deoxycortisol; Part 1, 50 mg QD) was 31.14 ng/dL, the “11-Deoxycortisol, mean observed” value (11-deoxycortisol; Part 1, 100 mg QD) was 29.97 ng/dL and the 11-deoxycortisol (11-deoxycortisol; Part 1 active treatment arms, Week 4 compared with placebo) was “Transient increases”. For the same compound, the “11-Deoxycortisol, mean observed” value (11-deoxycortisol; Part 2, 100 mg QD) was 40.79 ng/dL.

From US20260053812A1, “METHODS OF TREATING HYPERTENSION WITH A COMBINATION OF AN ALDOSTERONE SYNTHASE INHIBITOR AND A DIURETIC” (Mineralys Therapeutics, Inc., priority 2022, published 2026)
